Data taken from BindingDB's records for doi:10.1073/pnas.0708281105 (Gsk, 2008).

How the values were obtained:
Test in all cases: Receptor Tyrosine Kinase Inhibition Assay
Details in all cases: pH 7.5; 23 °C
[1] = biological target: Receptor tyrosine-protein kinase erbB-4 (Homo sapiens, UniProt Q15303)
Protocol: (§1) Assays were performed in 96-well microtiter plates in reaction buffer containing biotinylated substrate, ATP/[gamma-33P]ATP, and purified kinase in the presence of test compounds. Reactions were terminated and transferred to MAPH phosphocellulose filter plates. The scintillation mixture was added to each well, and the assay was quantified by counting in a Packard Topcount (Packard Instrument Co.).

[2] = biological target: Receptor tyrosine-protein kinase erbB-2 (Homo sapiens, UniProt P04626)
Protocol: as §1

[3] = biological target: Epidermal growth factor receptor (Homo sapiens, UniProt P00533)
Protocol: as §1

Chain of Epidermal growth factor receptor (P00533 whole entry): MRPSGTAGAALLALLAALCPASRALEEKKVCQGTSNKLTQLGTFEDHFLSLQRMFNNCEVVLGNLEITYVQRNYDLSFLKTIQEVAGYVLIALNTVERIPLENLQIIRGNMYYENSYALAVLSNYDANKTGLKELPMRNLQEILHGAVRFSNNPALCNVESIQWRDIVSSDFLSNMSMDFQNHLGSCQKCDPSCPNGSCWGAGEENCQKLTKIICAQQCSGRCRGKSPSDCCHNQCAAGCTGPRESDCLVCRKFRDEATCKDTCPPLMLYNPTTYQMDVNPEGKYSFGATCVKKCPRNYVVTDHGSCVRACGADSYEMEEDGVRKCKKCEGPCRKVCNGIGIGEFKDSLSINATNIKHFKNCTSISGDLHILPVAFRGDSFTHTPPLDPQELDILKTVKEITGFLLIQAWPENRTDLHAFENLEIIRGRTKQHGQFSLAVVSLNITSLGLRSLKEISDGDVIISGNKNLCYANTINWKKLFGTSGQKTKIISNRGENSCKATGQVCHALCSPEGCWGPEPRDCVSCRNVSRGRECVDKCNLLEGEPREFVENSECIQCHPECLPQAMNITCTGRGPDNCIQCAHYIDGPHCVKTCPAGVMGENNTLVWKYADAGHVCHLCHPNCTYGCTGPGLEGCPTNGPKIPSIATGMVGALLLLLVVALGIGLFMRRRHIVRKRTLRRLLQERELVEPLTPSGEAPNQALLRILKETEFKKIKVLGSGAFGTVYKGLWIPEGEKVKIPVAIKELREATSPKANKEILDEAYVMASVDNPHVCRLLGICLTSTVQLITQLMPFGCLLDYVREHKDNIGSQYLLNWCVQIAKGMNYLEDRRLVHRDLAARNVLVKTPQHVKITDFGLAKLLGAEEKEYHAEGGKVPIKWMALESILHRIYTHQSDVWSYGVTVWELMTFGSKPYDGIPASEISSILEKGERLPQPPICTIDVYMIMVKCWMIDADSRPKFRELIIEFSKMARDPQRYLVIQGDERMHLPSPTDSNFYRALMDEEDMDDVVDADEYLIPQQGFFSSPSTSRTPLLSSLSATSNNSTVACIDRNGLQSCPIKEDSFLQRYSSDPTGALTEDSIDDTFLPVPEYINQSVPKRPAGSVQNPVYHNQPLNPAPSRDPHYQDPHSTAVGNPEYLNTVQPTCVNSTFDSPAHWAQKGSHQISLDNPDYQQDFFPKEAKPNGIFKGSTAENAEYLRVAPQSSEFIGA
Chain of Receptor tyrosine-protein kinase erbB-4 (Q15303 whole entry): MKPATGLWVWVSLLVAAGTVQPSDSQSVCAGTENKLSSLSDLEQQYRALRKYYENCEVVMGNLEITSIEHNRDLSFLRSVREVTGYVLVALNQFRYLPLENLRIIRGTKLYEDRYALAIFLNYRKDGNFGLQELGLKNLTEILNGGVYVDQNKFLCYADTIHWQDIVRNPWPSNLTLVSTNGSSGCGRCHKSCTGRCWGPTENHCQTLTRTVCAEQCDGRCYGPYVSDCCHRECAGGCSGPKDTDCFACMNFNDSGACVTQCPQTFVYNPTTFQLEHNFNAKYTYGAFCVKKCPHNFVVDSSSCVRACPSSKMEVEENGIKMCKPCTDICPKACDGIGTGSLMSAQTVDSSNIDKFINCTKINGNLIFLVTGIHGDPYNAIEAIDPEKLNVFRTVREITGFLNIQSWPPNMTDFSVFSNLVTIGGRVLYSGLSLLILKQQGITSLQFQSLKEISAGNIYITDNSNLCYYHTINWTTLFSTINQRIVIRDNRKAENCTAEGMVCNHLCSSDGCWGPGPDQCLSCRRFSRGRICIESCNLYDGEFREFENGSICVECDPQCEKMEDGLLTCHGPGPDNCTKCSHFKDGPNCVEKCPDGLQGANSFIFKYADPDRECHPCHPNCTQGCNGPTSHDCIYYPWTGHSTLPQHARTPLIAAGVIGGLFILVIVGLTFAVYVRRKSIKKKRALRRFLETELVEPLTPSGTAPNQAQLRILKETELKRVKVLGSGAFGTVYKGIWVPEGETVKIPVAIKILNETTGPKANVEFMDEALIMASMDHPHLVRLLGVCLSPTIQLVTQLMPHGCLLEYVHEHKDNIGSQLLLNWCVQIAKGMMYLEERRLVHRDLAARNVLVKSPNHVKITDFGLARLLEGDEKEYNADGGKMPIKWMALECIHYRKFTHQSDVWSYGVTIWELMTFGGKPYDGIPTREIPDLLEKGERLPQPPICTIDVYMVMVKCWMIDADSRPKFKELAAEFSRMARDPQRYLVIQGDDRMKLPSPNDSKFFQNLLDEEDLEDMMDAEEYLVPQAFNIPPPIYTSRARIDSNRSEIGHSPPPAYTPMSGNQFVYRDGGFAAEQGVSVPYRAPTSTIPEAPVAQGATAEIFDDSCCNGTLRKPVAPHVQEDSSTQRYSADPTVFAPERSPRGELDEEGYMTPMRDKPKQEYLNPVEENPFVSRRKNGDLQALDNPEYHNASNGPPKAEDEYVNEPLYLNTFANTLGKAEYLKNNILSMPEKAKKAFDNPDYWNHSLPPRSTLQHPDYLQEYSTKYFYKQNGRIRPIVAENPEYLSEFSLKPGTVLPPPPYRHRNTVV
Chain of Receptor tyrosine-protein kinase erbB-2 (P04626 whole entry): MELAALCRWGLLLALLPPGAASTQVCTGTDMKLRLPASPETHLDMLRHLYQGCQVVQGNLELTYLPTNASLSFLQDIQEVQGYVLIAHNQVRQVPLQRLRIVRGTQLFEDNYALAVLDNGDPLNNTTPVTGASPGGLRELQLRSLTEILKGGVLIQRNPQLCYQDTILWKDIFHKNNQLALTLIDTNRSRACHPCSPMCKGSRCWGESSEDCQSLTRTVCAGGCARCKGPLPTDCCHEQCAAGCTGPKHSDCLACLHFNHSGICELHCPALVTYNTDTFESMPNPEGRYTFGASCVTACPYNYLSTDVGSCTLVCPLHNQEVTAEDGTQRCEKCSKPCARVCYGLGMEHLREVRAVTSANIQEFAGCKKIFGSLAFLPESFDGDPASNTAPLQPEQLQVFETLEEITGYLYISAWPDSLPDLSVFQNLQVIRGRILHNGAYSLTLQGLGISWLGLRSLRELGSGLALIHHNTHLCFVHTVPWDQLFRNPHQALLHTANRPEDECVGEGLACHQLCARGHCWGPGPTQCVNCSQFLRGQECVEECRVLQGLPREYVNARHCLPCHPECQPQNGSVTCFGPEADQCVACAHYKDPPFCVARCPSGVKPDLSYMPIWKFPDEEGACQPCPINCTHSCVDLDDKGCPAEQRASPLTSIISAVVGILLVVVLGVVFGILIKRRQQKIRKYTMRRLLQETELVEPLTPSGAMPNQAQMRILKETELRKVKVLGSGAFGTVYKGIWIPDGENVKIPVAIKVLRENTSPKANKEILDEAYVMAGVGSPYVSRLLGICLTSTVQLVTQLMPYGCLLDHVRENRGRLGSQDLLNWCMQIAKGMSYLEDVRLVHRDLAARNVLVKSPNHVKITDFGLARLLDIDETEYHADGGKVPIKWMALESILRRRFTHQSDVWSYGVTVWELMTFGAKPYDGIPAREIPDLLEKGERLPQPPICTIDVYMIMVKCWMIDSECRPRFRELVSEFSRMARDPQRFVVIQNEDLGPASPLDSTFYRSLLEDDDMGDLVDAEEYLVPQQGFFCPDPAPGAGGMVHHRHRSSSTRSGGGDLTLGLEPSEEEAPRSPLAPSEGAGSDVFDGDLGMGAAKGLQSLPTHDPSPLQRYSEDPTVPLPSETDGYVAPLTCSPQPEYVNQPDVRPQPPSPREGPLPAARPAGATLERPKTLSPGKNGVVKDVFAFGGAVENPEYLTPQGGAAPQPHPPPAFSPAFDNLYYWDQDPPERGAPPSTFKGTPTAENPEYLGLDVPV

| IC50 [1] | IC50 [2] | IC50 [3] | SMILES |
| --- | --- | --- | --- |
| 1.72 µM | 0.019 µM | 0.071 µM | C#Cc1cc2c(Nc3ccc(OCc4cccc(F)c4)c(Cl)c3)ncnc2s1 [N-{3-chloro-4-[(3-fluorophenyl)methoxy]phenyl}-6-ethynylthieno[2,3-d]pyrimidin-4-amine] |
|  | 0.012 µM | 0.024 µM | C#Cc1cc2ncnc(Nc3ccc(OCc4cccc(F)c4)c(Cl)c3)c2s1 [N-{3-chloro-4-[(3-fluorophenyl)methoxy]phenyl}-6-ethynylthieno[3,2-d]pyrimidin-4-amine] |
| 2.3 µM | 0.054 µM | 0.109 µM | Fc1cccc(COc2ccc(Nc3ncnc4sc(C#C[C@H]5CCCN5)cc34)cc2Cl)c1 [N-{3-chloro-4-[(3-fluorophenyl)methoxy]phenyl}-6-{2-[(2R)-pyrrolidin-2-yl]ethynyl}thieno[2,3-d]pyrimidin-4-amine] |
| 0.066 µM | 0.013 µM | 0.007 µM | Fc1cccc(COc2ccc(Nc3ncnc4cc(C#C[C@H]5CCCN5)sc34)cc2Cl)c1 [N-{3-chloro-4-[(3-fluorophenyl)methoxy]phenyl}-6-{2-[(2R)-pyrrolidin-2-yl]ethynyl}thieno[3,2-d]pyrimidin-4-amine] |

Second part, the compound before the results:

| SMILES | IC50 [1] | IC50 [2] | IC50 [3] |
| --- | --- | --- | --- |
| Nc1cnc(C#Cc2cc3c(Nc4ccc(OCc5cccc(F)c5)c(Cl)c4)ncnc3s2)cn1 [5-{2-[4-({3-chloro-4-[(3-fluorophenyl)methoxy]phenyl}amino)thieno[2,3-d]pyrimidin-6-yl]ethynyl}pyrazin-2-amine] | 1.35 µM | 0.052 µM | 0.372 µM |
| Nc1cnc(C#Cc2cc3ncnc(Nc4ccc(OCc5cccc(F)c5)c(Cl)c4)c3s2)cn1 [5-{2-[4-({3-chloro-4-[(3-fluorophenyl)methoxy]phenyl}amino)thieno[3,2-d]pyrimidin-6-yl]ethynyl}pyrazin-2-amine] | 0.254 µM | 0.01 µM | 0.047 µM |
| C[C@H](N)C#Cc1cc2c(Nc3ccc(OCc4cccc(F)c4)c(Cl)c3)ncnc2s1 [6-[(3S)-3-aminobut-1-yn-1-yl]-N-{3-chloro-4-[(3-fluorophenyl)methoxy]phenyl}thieno[2,3-d]pyrimidin-4-amine] | 0.638 µM | 0.044 µM | 0.069 µM |
| C[C@H](N)C#Cc1cc2ncnc(Nc3ccc(OCc4cccc(F)c4)c(Cl)c3)c2s1 [6-[(3S)-3-aminobut-1-yn-1-yl]-N-{3-chloro-4-[(3-fluorophenyl)methoxy]phenyl}thieno[3,2-d]pyrimidin-4-amine] | 0.412 µM | 0.027 µM | 0.064 µM |
